Results as given in patent US20040161399A1, “Use of nonimmunosuppressive [$g(g)-hydroxy-n-methyl-l-leucine4]cyclosporin derivatives for treating hair loss” (priority 2001, published 2004).
Starred links: 1 amine or outer side, 2 acyl side, 3 side chain; linkers in the order of their positions; H or OH if unused. Non-standard residues stand in square brackets, D forms with d. Residues, ends and D or L forms follow the SMILES beside them. AlaΨ(CSNH)dAla = C[C@H](N[*:1])C(=S)N[C@H](C)C(=O)[*:2]; MeBmt = C/C=C/C[C@@H](C)[C@@H](O)[C@H](NC)C(=O)O; NMeLeu(4-OH) = CN[C@@H](CC(C)(C)O)C(=O)O; NMeL = CN[C@@H](CC(C)C)C(=O)O; NMeV = CN[C@H](C(=O)O)C(C)C; dHiv = CC(C)[C@@H](O)C(=O)O; dNMeA = CN[C@H](C)C(=O)O; Abu = CC[C@H](N)C(=O)O; Sar = CNCC(=O)O

What was measured:
[1] = tested on: Female C57BL/6 mice; assay: Evaluation of hair restoring effect in mice (topical application to shaved back); format: in vivo; details: for Area rate of hair regrowth (%): C57BL/6 mice, hair-removed back, 100 μl of 0.1% w/v once a day for 30 days, visual examination; for hair restoring / hair growth promoting effect (in words): qualitative statement
Protocol: Evaluation of Hair Restoring Effect in Mice
Female C57BL/6 mice of ages 6 to 7 weeks were utilized. After removing hairs on the middle of the back with an electric shaver, the mice were weighed and randomly assigned to the test groups with an even distribution of weights. […] The results were determined by visual examination, in terms of degrees of hair regrowth. With respect to respective hair-removed areas, rates of new hair growth were examined and compared.

[2] = tested on: splenocytes (responder cells from BALB/c mice, stimulator cells from C57BL/6 mice); assay: Mixed Lymphocyte Reaction (MLR) method, 3H-thymidine incorporation; format: cell-based; details: qualitative statement
Protocol: Evaluation of Non-Immunosuppressive Activity In Vitro
Responder cells from BALB/c mice were mixed with an equal number of stimulator cells from C57BL/6 mice pre-treated with mitomycin. […] After 4 days of incubation, ^3H-thymidine was added to the mixtures and incubated for an additional 4 hours. Then, the amount of thymidine incorporated into the cells was measured (liquid scintillation counter), and IC50 (μg/ml) of respective cyclosporins were calculated.

Row | Molecule | Area rate of hair regrowth (%) [1] [%] | hair restoring / hair growth promoting effect (in words) [1] | immunosuppressive activity (in words) [2]
1 | C/C=C/C[C@@H](C)[C@@H](O)[C@H]1C(=O)N[C@@H](CC)C(=O)N(C)CC(=O)N(C)[C@@H](CC(C)(C)O)C(=O)N[C@@H](C(C)C)C(=O)N(C)[C@@H](CC(C)C)C(=O)N[C@@H](C)C(=S)N[C@H](C)C(=O)N(C)[C@@H](CC(C)C)C(=O)N(C)[C@@H](CC(C)C)C(=O)N(C)[C@@H](C(C)C)C(=O)N1C [[γ-hydroxy-N-methyl-L-leucine^4][alaninethiomide^7, ^7ψ^8 CS—NH] cyclosporin A] (cyclo([MeBmt][Abu][Sar][NMeLeu(4-OH)]V[NMeL][AlaΨ(CSNH)dAla][NMeL][NMeL][NMeV])) | 91 | – | –
2 | C/C=C/C[C@@H](C)[C@@H](O)[C@H]1C(=O)N[C@@H]([C@@H](C)O)C(=O)N(C)CC(=O)N(C)[C@@H](CC(C)(C)O)C(=O)N[C@@H](CC(C)C)C(=O)N(C)[C@@H](CC(C)C)C(=O)N[C@@H](C)C(=O)O[C@H](C(C)C)C(=O)N(C)[C@@H](CC(C)C)C(=O)N[C@@H](CC(C)C)C(=O)N(C)[C@@H](C(C)C)C(=O)N1C [[L-threonine^2][γ-hydroxy-N-methyl-L-leucine^4][L-leucine^5][D-2-hydroxyisovaleric acid^8][L-leucine^10] cyclosporin A] (cyclo([MeBmt]T[Sar][NMeLeu(4-OH)]L[NMeL]A[dHiv][NMeL]L[NMeV])) | 90 | – | –
3 | [γ-hydroxy-N-methyl-L-leucine^4] cyclosporin A [reference compound] | – | has a hair restoring effect | no immunosuppressive activity
4 | C/C=C/C[C@@H](C)[C@@H](O)[C@H]1C(=O)N[C@@H](CC)C(=O)N(C)[C@H](C)C(=O)N(C)[C@@H](CC(C)(C)O)C(=O)N[C@@H](C(C)C)C(=O)N(C)[C@@H](CC(C)C)C(=O)N[C@@H](C)C(=O)N[C@H](C)C(=O)N(C)[C@@H](CC(C)C)C(=O)N(C)[C@@H](CC(C)C)C(=O)N(C)[C@@H](C(C)C)C(=O)N1C [[N-methyl-D-alanine^3][γ-hydroxy-N-methyl-L-leucine^4] cyclosporin A] (cyclo([MeBmt][Abu][dNMeA][NMeLeu(4-OH)]V[NMeL]A[dA][NMeL][NMeL][NMeV])) | 95 | has a hair restoring effect | reduced
